Laboratory results published in PubChem BioAssay (NCI).
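Growth conditions: 96-well plates. Treatment: test compound, 48 hours, 5 concentrations. Analysis: linear interpolation between bracketing concentrations; unreached endpoints set to highest concentration. The concentration for 50% growth inhibition is given as GI50. TGI: concentration producing complete growth inhibition.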

Tests used:
Test in all cases: NCI tumour cell line growth inhibition, 48 h
[1] = test system: HCT-116 colon
[2] = test system: HT29 colon
[3] = test system: LOX IMVI melanoma
[4] = test system: M14 melanoma
[5] = test system: OVCAR-4 ovarian
[6] = test system: SF-295 CNS
[7] = test system: SK-MEL-2 melanoma
[8] = test system: SK-MEL-5 melanoma
[9] = test system: SN12C renal
[10] = test system: SNB-19 CNS

SMILES | TGI [1] [µM] | TGI [2] [µM] | TGI [3] [µM] | TGI [4] [µM] | TGI [5] [µM] | TGI [6] [µM] | TGI [7] [µM] | TGI [8] [µM] | TGI [9] [µM] | TGI [10] [µM] | GI50 [1] [µM] | GI50 [2] [µM] | GI50 [3] [µM] | GI50 [4] [µM] | GI50 [5] [µM] | GI50 [6] [µM] | GI50 [7] [µM] | GI50 [8] [µM] | GI50 [9] [µM] | GI50 [10] [µM]
CCOc1ccccc1NC(=O)CC(C(=O)OC)C(=O)C(=O)OC (stereo not drawn) | > 100 | > 100 | > 100 | > 100 | > 100 | > 100 | > 100 | > 100 | > 100 | > 100 |  |  |  |  |  |  |  |  |  | 
N#C/C(=C1C=C(Br)/C(=N\O)C=C\1Cl)c1cccc2ccccc12 | 15.6 | 6.79 | > 100 | 11.7 | 7.6 | 12.3 | 8.9 | 13.4 | 23.2 | 32.1 |  |  |  |  |  |  |  |  |  | 
COC(=O)C1=C(C)N(NC(=O)OC(C)(C)C)C(=O)C1=P(c1ccccc1)(c1ccccc1)c1ccccc1 | > 100 | > 100 | > 100 | > 100 | > 100 | > 100 | > 100 | > 100 | > 100 | > 100 |  |  |  |  |  |  |  |  |  | 
COC1(OC)C2(Cl)C(Cl)=C(Cl)C1(Cl)C1C=CC=CC12 (stereo not drawn) | > 100 | > 100 | > 100 | > 100 | > 100 | > 100 | 63 | > 100 | > 100 | > 100 |  |  |  |  |  |  |  |  |  | 
CN1C/C=C\CCOc2cccc(c2)-c2ccnc(n2)Nc2cccc(c2)C1 | 0.677 | 0.976 | 1.06 | 0.346 | 1.88 | 1.1 | 0.132 | 0.205 | 1.45 | 4.25 | 0.0298 | 0.0497 | 0.0343 | 0.0644 | 0.113 | 0.0616 | 0.0397 | 0.0502 | 0.0556 | 0.057
c1ccc2c(c1)ccn2CCc1c[nH]c2ccccc12 | > 10 | > 10 | > 10 | > 10 | > 10 | > 10 | > 10 | > 10 | > 10 | > 10 |  |  |  |  |  |  |  |  |  | 
COc1cc2c3c(n(CCCNC(=O)OCC4c5ccccc5-c5ccccc54)c(=O)c2cc1OC)-c1cc2c(cc1/C3=C\CCNC(=O)OCC1c3ccccc3-c3ccccc31)OCO2 | > 12.9 | > 50 | > 50 | > 50 | > 50 | > 50 | > 21.6 | > 50 | > 50 | > 50 |  | 21.5 | > 22.5 | > 25.3 | > 50 | > 23.6 | > 10.2 | > 50 | > 50 | > 29.6
COC(=O)[C@@H](C)CNS(=O)(=O)N(c1cc(C(F)(F)F)cc(C(F)(F)F)c1)C1CCN(Cc2ccc(F)cc2)CC1 | 16.4 | 14.6 | 25 | 15 | 24.7 | 24.5 | 41 | 12 | 18.5 | 25.8 | 4.41 | 3.78 | 8.1 | 3.75 | 11.9 | 10.5 | 21 | 3.19 | 4.69 | 13
CCOC(=O)[C@@H](N)CCC(=O)N[C@@H](CSCc1ccccc1)C(=O)N[C@@H](C(=O)OCC)c1ccccc1 | 36.8 | 33.6 | 32.1 | 37.2 | > 57.1 | 40.2 | 32.7 | 27.5 | 34.9 | 38 | 18.3 | 16.6 | 16.7 | 19 | 27.5 | 18.3 | 16.7 | 14.2 | 18 | 18.8
CN(C)C(=O)c1cc2cnc(Nc3ccc(-c4csc5c(=S)cc(N6CCOCC6)oc45)cc3)nc2n1C1CCCC1 | > 50 | > 50 | 2.54 | > 50 | > 50 | > 13.5 | 2.84 | 2.43 | > 50 | > 34.5 | 0.242 | 0.515 | 0.355 | 0.838 | 1.03 | 0.672 | 0.971 | 0.715 | 0.33 | 0.498
N#CC(NNC(=O)Cc1ccccc1)c1c(O)ccc2ccccc12 (stereo not drawn) | 50.9 | 62.1 | 14.3 | 21.1 | 51 | 40.2 | 26.9 | 15.7 | 61.3 | > 64.4 |  |  |  |  |  |  |  |  |  | 
NS(=O)(=O)c1ccc(NC2(C(=O)O)CCCC2)cc1 | > 100 | > 100 | > 100 | > 100 | > 100 | > 100 | > 100 | > 100 | > 100 | > 100 |  |  |  |  |  |  |  |  |  | 
COc1cc(C=C2C(=O)NC(=O)NC2=O)cc(OC)c1OC | > 100 | > 100 | > 100 | > 100 | > 100 | > 100 | > 100 | > 100 | > 100 | > 100 |  |  |  |  |  |  |  |  |  | 
CCCCCCCC/C=C/CCCCCCCC(=O)OC[C@H]1O[C@@H](n2ccc(N)nc2=O)C(F)(F)[C@@H]1O | > 100 | > 100 | > 35.9 | 0.0273 | > 100 | 0.555 | > 100 | > 100 | > 47.2 | > 43.5 | < 0.018 | 0.097 | 0.0418 | < 0.0115 | > 100 | 0.0242 | 14.2 | 0.0327 | 0.0388 | < 0.0419
O=C(O)C1OC(n2cc(F)c(=O)[nH]c2=O)CC1O (stereo not drawn) | > 100 | > 100 | > 100 | > 100 | > 100 | > 100 | > 100 | > 100 | > 100 | > 100 |  |  |  |  |  |  |  |  |  | 
COc1cc2c(cc1OC)C(CC(=O)NN=C(C)C)NCC2 (stereo not drawn) | > 100 | > 100 | > 100 | > 100 | > 100 | > 100 | > 100 | > 100 | > 100 | > 100 |  |  |  |  |  |  |  |  |  | 

SMILES | TGI [1] [µM] | TGI [2] [µM] | TGI [3] [µM] | TGI [4] [µM] | TGI [5] [µM] | TGI [6] [µM] | TGI [7] [µM] | TGI [8] [µM] | TGI [9] [µM] | TGI [10] [µM] | GI50 [1] [µM] | GI50 [2] [µM] | GI50 [3] [µM] | GI50 [4] [µM] | GI50 [5] [µM] | GI50 [6] [µM] | GI50 [7] [µM] | GI50 [8] [µM] | GI50 [9] [µM] | GI50 [10] [µM]
CCOC(=O)c1c(C)n(Cc2ccc(Cl)cc2Cl)c2c1c(CN(C)C)c(O)c1[nH]cnc12 | 33 | 31.8 | 29.1 | 43.9 | 85.7 | 65 | 39.8 | 30.9 | 28.6 | 32.3 | 19 | 18 | 15.7 | 24.2 | 16.7 | 28.1 | 19.9 | 17.2 | 15.1 | 18.4
O=C(Cc1ccccc1)NN1C(=O)C(Cl)C1c1cc(Br)ccc1O (stereo not drawn) | > 100 | > 100 | > 100 | 19 | > 100 | 94.3 | > 100 | > 100 | > 100 | 47.9 |  |  |  |  |  |  |  |  |  | 
Cc1nc(N)sc1C(=O)/C=C\c1ccc2c(c1)OCO2 | > 100 | > 100 | > 100 | > 100 | > 100 | > 100 | > 100 | > 100 | > 100 | > 100 |  |  |  |  |  |  |  |  |  | 
Cn1c(=O)c(C(c2ccc([N+](=O)[O-])cc2)c2c(O)c3ccccc3n(C)c2=O)cc2ccccc21 (stereo not drawn) | > 100 | > 100 | > 100 | > 100 | > 100 | > 100 | > 100 | > 100 | > 100 | > 100 |  |  |  |  |  |  |  |  |  | 
C1=CC2SSSC2C1 (stereo not drawn) | > 100 | > 100 | > 100 | > 100 | > 100 | > 100 | > 100 | > 100 | > 100 | > 100 |  |  |  |  |  |  |  |  |  | 
CN1CCN(CCCOc2ccc3nc(Nc4ccc(Cl)c(C(F)(F)F)c4)ccc3c2)CC1 | 21.7 | 8.38 | 15.9 | 26.1 | 26.4 | 29.7 | 31.6 | 29.1 | 30.2 | 34.5 | 8.44 | 2.67 | 4.07 | 12.7 | 12.7 | 14.3 | 16.5 | 15.1 | 13.8 | 16.2
COC1=CC(=O)c2nc(-c3cccc(C)n3)[nH]c2C1=O | 35.7 | > 100 | > 100 | > 100 | 50.3 | 85.2 | > 100 | 36.4 | > 100 | 60.6 | 18 | 33.4 | 49.6 | 35.6 | 20.4 | 28.4 | 52.4 | 15.9 | 32.9 | 23.3
COc1cc(C(C)O)c[n+](CCc2c[nH]c3ccccc23)c1 (stereo not drawn) | > 100 | > 100 | > 100 | > 100 | > 100 | > 100 | > 100 | > 100 | > 100 | > 100 |  |  |  |  |  |  |  |  |  | 
O=C1OC(c2ccccc2)=N/C1=C\c1cccc2ccccc12 | > 100 | > 100 | > 100 | > 100 | > 100 | > 100 | > 100 | > 100 | > 100 | > 100 |  |  |  |  |  |  |  |  |  | 
COC(=O)[C@H](C)NC(=O)NC(=O)NC(=O)CI | 28.4 | 36.4 | 5.97 | 27.5 | 24.4 | 33.1 | 29.9 | 31.8 | 39.3 | 43.1 | 13.9 | 18.1 | 2.27 | 11.8 | 11.6 | 17.4 | 15.4 | 17.6 | 19.8 | 19.8
CCOc1ccccc1N=Nc1ccc2oc(=O)c(C(=O)Nc3cccc(C)c3)cc2c1 | 51.7 | > 100 | 61.6 | 59.5 | 79.4 | > 100 | 46.9 | 32.8 | > 100 | 99.4 |  |  |  |  |  |  |  |  |  | 
COc1ccc(-c2n[nH]nc2-c2cc(OC)c(OC)c(OC)c2)cc1 | > 100 | 0.0481 | > 57 | 17.8 | 43.3 | > 100 | 43.4 | 0.0224 | > 100 | > 100 | < 0.01 | < 0.01 | < 0.01 | < 0.01 | < 0.0144 | < 0.01 | < 0.01 | < 0.01 | < 0.01 | 
C=C1C(=O)O[C@H]2[C@H]1CC/C(COC(=O)C(=O)c1cn(Cc3ccccc3)c3ccccc13)=C\CC[C@@]1(C)O[C@@H]21 | 3.36 | 4.53 | 2.57 | 4.13 | > 100 | 25.6 | 4.71 | 4.1 | 6.03 | 25.9 | 1.62 | 2.02 | 1.21 | 1.78 | 4.19 | 10.5 | 2.09 | 1.99 | 2.3 | 7.21
COC(=O)C1=CNC=C(C(=O)OC)C1C1=CC(=O)C(C)=CC1=O | 3.79 | > 100 | 28.6 | 29.1 | 61.7 | 40.1 | 30.9 | 43.7 | 25.8 | 36.7 | 1.94 | 29.9 | 14 | 15.2 | 20.7 | 19.7 | 16.6 | 20.7 | 13 | 18.5
NP(=O)(Oc1c2occc2cc2ccc(=O)oc12)N(CCCl)CCCl (stereo not drawn) | > 100 | > 100 | > 100 | > 100 | > 100 | > 100 | > 100 | > 100 | > 100 | > 100 |  |  |  |  |  |  |  |  |  | 
C[N+](C)(C)CC1CCCCCCCCCCC1=O (stereo not drawn) | > 100 | > 100 | > 100 | > 100 | > 100 | > 100 | > 100 | > 100 | > 100 | > 100 |  |  |  |  |  |  |  |  |  | 
